Values quoted from earlier work as cited in patent US6629995B1, “Camptothecin conjugates” (priority 2000, dated 2003).

Assays:
[1] = test system: nontumorigenic and tumorigenic human cells
[2] = test system: human colon cancer xenografts; conditions: mouse, in vivo
human tumor xenografts = conditions: nude mice
[3] = administered intravenously
[4] = test system: beta cells of the pancreas; conditions: in vivo

CC[C@@]1(O)C(=O)OCc2c1cc1n(c2=O)Cc2cc3ccccc3nc2-1 [CPT, 20(S)-camptothecin]
effect on nontumorigenic cells ([1]; nontumorigenic human cells in vitro): cytostatic
effect on tumorigenic cells ([1]; tumorigenic human cells in vitro): cytotoxic
solubility in water: insoluble in water

CC[C@@]1(O)C(=O)OCc2c1cc1n(c2=O)Cc2cc3cc4c(cc3nc2-1)OCO4 [10,11 MD, 10,11-Methylendioxy-20(S)-Camptothecin]
anticancer activity against human colon cancer xenografts [2]: high anticancer activity

CC[C@@]1(O)C(=O)OCc2c1cc1n(c2=O)Cc2cc3c([N+](=O)[O-])cccc3nc2-1 [Example 9NC, 9-nitrocamptothecin]
activity against human tumor xenograft models (human tumor xenografts): high activity

CC[C@@](O)(C(=O)[O-])c1cc2n(c(=O)c1CO)Cc1cc3ccccc3nc1-2.[Na+] [CPT Na+, camptothecin sodium salt]
potency in clinical trials [3]: low potency
toxicity in clinical trials [3]: high toxicity

CN(N=O)C(=O)N[C@@H]1[C@@H](O)[C@H](O)[C@@H](CO)O[C@@H]1O [Streptozoticin]
accumulation in tissue [4]: preferentially accumulate in the beta cells of the pancreas

CC[C@@]1(O)C(=O)OCc2c1cc1n(c2=O)Cc2cc3c(N)cccc3nc2-1 [Example 9AC, 9-Amino-20(S)-Camptothecin]
anticancer activity against human colon cancer xenografts [2]: high anticancer activity
